# Results from patent publication US4950647A, “T cell immunopotentiator” (Nucleic Acid Research Institute, priority 1988, dated 1990).
# Legend:
# [1] = system: B target cells (PHA induced lymphoblasts of donor B); experiment: Generation of antigen-specific primary cytotoxic T lymphocytes, 51Cr release, target B; format: cell-based, human; details: for % Specific Cytotoxicity: Exp. 1, A + Bx, no compound 7
# Procedure: (§1) Peripheral blood mononuclear cells from healthy donor A and C were cultured together with irradiated (3000 R) peripheral blood mononuclear cells from donor B and irradiated cells (SX) from B cells of the SB cell line, respectively, for five days. At the end of the incubation period, the cells were washed and resuspended in medium and then their cytotoxic activity was determined against the specific lymphoblast target cell B or S according to the procedure of Sharma and Gupta noted above.
# [2] = system: human mixed lymphocyte culture; experiment: Mixed lymphocyte response / culture (alloantigens); format: cell-based
# Procedure: (§2) Peripheral blood mononuclear cells were isolated from heparinized peripheral blood of normal healthy donors as described in Sharma, B. and S. Gupta, "Antigen-specific primary cytotoxic T lymphocyte response in acquired immune deficiency syndrome (AIDS) and AIDS related complex", Clin. Exp. Immunol., 62:296, 1985. Briefly, blood was diluted 1:1 with Hanks balanced salt solution (HBSS). Peripheral blood mononuclear cells were separated on a Ficoll-Hypaque gradient. The peripheral blood mononuclear cells recovered from the interface were washed three times with HBSS and resuspended in RPMI-1640 containing 100 U/ml penicillin, 100 μg/ml streptomycin 2mM L-glutamine (GIBCO, Grand Island, N.Y.), and 10% heat-inactivated pooled A serum (Irvine Scientific, Irvine, Calif.), hereafter referred as complete medium (CM).
# Peripheral blood mononuclear cells (1×10^5 /0.2 ml/well) from donor-A were cultured together with different numbers of peripheral blood mononuclear cells ([…]) of peripheral blood mononuclear cells from the other donor for 96 hr as previously described above for the lymphocyte response to plant mitogens. Cultures were pulsed with [^3 H]-thymidinefor additional 16 hrs.
# [3] = Revankar et al. 1984; cited from earlier work
# [4] = system: human lymphocytes (peripheral blood mononuclear cells); experiment: Phytohemagglutinin (PHA) induced lymphocyte proliferation; format: cell-based
# Procedure: as §2
# The ability of the compound 6-amino-(2-deoxy-α-D-erythropentofuranosyl)-imidazo[4,5,-C]pyridin-4-one to modulate lymphocyte response to plant mitogens was determined by the modified procedure of Sharma, B., O. Kohashi, M. R. Mickey, and P. T. Terasaki, "Effect of water soluble adjuvants on in vitro lymphocyte immunization", Cancer Res. 35:666, 1975. Peripheral blood mononuclear cells were cultured for 72-96 hr with phytohemagglutinin (Difco, Detroit, Mich.), Concanavalin A (Calbiochem, Calif.) or Pokeweed mitogen (GIBCO, Grand Island, N.Y.) in the presence and absence of 6-amino-(2-deoxy-α-D-erythro-pentofuranosyl)-imidazo[4,5,-C]pyridin- 4-one. The culture were set up in quadruplicate and pulsed with [^3 H]-thymidine for 16 hr and the [^3 H] thymidine incorporation was determined.
# Lymphocytes from different donors where incubated with various concentration of phytohemagglutinin in absence and presence of 6-amino-(2-deoxy-α-D-erythro-pentofuranoxyl)imidazo-[4,5,-C]pyridin- 4-one.
# […] Lymphocyte proliferation was determined by ^3 H-thymidine incorporation.
# [5] = system: S target cells (cultured lymphoblasts from SB cell line); experiment: Generation of antigen-specific primary cytotoxic T lymphocytes, 51Cr release, target S; format: cell-based, human; details: for % Specific Cytotoxicity: Exp. 2, C + Sx, no compound 26
# Procedure: as §1
# [6] = Revankar et al. 1984; cited from earlier work; remark: listed apart in the source
# [7] = donor 2, PHA 0.25 mg/0.2 ml, compound (0.1)
# [8] = donor 2, PHA 1.0 mg/0.2 ml, compound (0.05)
# [9] = donor 2, PHA 4.0 mg/0.2 ml, compound (0.038)
# [10] = donor 3, PHA 0.25 mg/0.2 ml, compound (0.4)
# [11] = donor 3, PHA 1.0 mg/0.2 ml, compound (0.2)
# [12] = donor 3, PHA 1.0 mg/0.2 ml, compound (0.4)
# [13] = donor 3, PHA 4.0 mg/0.2 ml, compound (0.2)
# [14] = donor 3, PHA 4.0 mg/0.2 ml, compound (0.4)
# [15] = donor 4, PHA 0.25 mg/0.2 ml, compound (0.4)
# [16] = donor 4, PHA 1.0 mg/0.2 ml, compound (0.05)
# [17] = donor 4, PHA 1.0 mg/0.2 ml, compound (0.4)
# [18] = donor 4, PHA 4.0 mg/0.2 ml, compound (0.4)
# [19] = donor 5, PHA 0.5 mg/0.2 ml, compound (0.05)
# [20] = donor 5, PHA 1.0 mg/0.2 ml, compound (0.2)
# [21] = donor 5, PHA 4.0 mg/0.2 ml, compound (0.2)
# [22] = donor 6, PHA 0.5 mg/0.2 ml, compound (0.05)
# [23] = donor 7, PHA 0.125 mg/0.2 ml, compound (0.4)
# [24] = donor 7, PHA 0.125 mg/0.2 ml, compound (1.0)
compound,measurement,setting,value
"Nc1cc2c(ncn2[C@@H]2C[C@H](O)[C@@H](CO)O2)c(O)n1 [Test Compound, 6-amino-1-(2-deoxy-α-D-erythro-pentofuranosyl)imidazo[4,5-C]-pyridin-4-one]",% Specific Cytotoxicity,[1]; compound (0.05),9%
same,% Specific Cytotoxicity,[1]; compound (0.1),22%
same,% Specific Cytotoxicity,[1]; compound (0.2),26%
same,cytotoxic T lymphocyte activity,[1]; specific fresh phytohemagglutinin induced lymphoblasts,increased
same,effect on mixed lymphocyte response,[2]; 2-way mixed lymphocyte culture,markedly increased the mixed lymphocyte response in a dose dependent manner in most of the cases
same,maximal increase of mixed lymphocyte response,[2]; 2-way mixed lymphocyte culture,91%
same,3H-thymidine incorporation in MLC,"[2]; A + B (0.5 × 10^5), 0.0125 mM",14814 ± 929 CPM
same,3H-thymidine incorporation in MLC,"[2]; A + B (0.5 × 10^5), 0.025 mM",18978 ± 1048 CPM
same,3H-thymidine incorporation in MLC,"[2]; A + B (0.5 × 10^5), 0.05 mM",21399 ± 1759 CPM
same,3H-thymidine incorporation in MLC,"[2]; A + B (0.5 × 10^5), 0.2 mM",22448 ± 1609 CPM
same,3H-thymidine incorporation in MLC,"[2]; A + B (0.5 × 10^5), 0.4 mM",21593 ± 3007 CPM
same,3H-thymidine incorporation in MLC,"[2]; A + B (1 × 10^5), 0.0125 mM",26858 ± 2392 CPM
same,3H-thymidine incorporation in MLC,"[2]; A + B (1 × 10^5), 0.025 mM",21794 ± 7136 CPM
same,3H-thymidine incorporation in MLC,"[2]; A + B (1 × 10^5), 0.05 mM",33532 ± 1732 CPM
same,3H-thymidine incorporation in MLC,"[2]; A + B (1 × 10^5), 0.2 mM",30790 ± 1912 CPM
same,3H-thymidine incorporation in MLC,"[2]; A + B (1 × 10^5), 0.4 mM",30261 ± 1835 CPM
same,3H-thymidine incorporation in MLC,"[2]; A + B (2 × 10^5), 0.0125 mM",18608 ± 2511 CPM
same,3H-thymidine incorporation in MLC,"[2]; A + B (2 × 10^5), 0.025 mM",23548 ± 4439 CPM
same,3H-thymidine incorporation in MLC,"[2]; A + B (2 × 10^5), 0.05 mM",25299 ± 4479 CPM
same,3H-thymidine incorporation in MLC,"[2]; A + B (2 × 10^5), 0.2 mM",29209 ± 2804 CPM
same,3H-thymidine incorporation in MLC,"[2]; A + B (2 × 10^5), 0.4 mM",27940 ± 3679 CPM
same,3H-thymidine incorporation in MLC,"[2]; B + A (0.5 × 10^5), 0.0125 mM",17045 ± 982 CPM
same,3H-thymidine incorporation in MLC,"[2]; B + A (0.5 × 10^5), 0.025 mM",19538 ± 3053 CPM
same,3H-thymidine incorporation in MLC,"[2]; B + A (0.5 × 10^5), 0.05 mM",20799 ± 1068 CPM
same,3H-thymidine incorporation in MLC,"[2]; B + A (0.5 × 10^5), 0.2 mM",19346 ± 20799 CPM
same,3H-thymidine incorporation in MLC,"[2]; B + A (0.5 × 10^5), 0.4 mM",13779 ± 3043 CPM
same,3H-thymidine incorporation in MLC,"[2]; B + A (2 × 10^5), 0.0125 mM",18538 ± 1601 CPM
same,3H-thymidine incorporation in MLC,"[2]; B + A (2 × 10^5), 0.025 mM",22129 ± 3893 CPM
same,3H-thymidine incorporation in MLC,"[2]; B + A (2 × 10^5), 0.05 mM",24362 ± 2936 CPM
same,3H-thymidine incorporation in MLC,"[2]; B + A (2 × 10^5), 0.2 mM",27737 ± 2105 CPM
same,3H-thymidine incorporation in MLC,"[2]; B + A (2 × 10^5), 0.4 mM",28986 ± 1448 CPM
same,in vitro antiviral activity,[3],limited in vitro antiviral activity
same,activity in augmenting phytohemagglutinin response compared with interleukin-2,[4]; Table III,equals that of interleukin-2
same,potentiation of lymphocyte response to phytohemagglutinin,[4]; all the 5 donors examined,striking potentiation
same,3H-thymidine incorporation in PHA-stimulated cultures,[4]; [7],56362 ± 8650 Counts per minute
same,% Potentiation,[4]; [7],294%
same,3H-thymidine incorporation in PHA-stimulated cultures,[4]; [8],110155 ± 5101 Counts per minute
same,% Potentiation,[4]; [8],41%
same,3H-thymidine incorporation in PHA-stimulated cultures,[4]; [9],127102 ± 3001 Counts per minute
same,% Potentiation,[4]; [9],53%
same,3H-thymidine incorporation in PHA-stimulated cultures,[4]; [10],34646 ± 6344 Counts per minute
same,% Potentiation,[4]; [10],1074%
same,3H-thymidine incorporation in PHA-stimulated cultures,[4]; [11],77757 ± 18381 Counts per minute
same,% Potentiation,[4]; [11],295%
same,3H-thymidine incorporation in PHA-stimulated cultures,[4]; [12],61653 ± 12029 Counts per minute
same,% Potentiation,[4]; [12],213%
same,3H-thymidine incorporation in PHA-stimulated cultures,[4]; [13],88518 ± 7387 Counts per minute
same,% Potentiation,[4]; [13],144%
same,3H-thymidine incorporation in PHA-stimulated cultures,[4]; [14],97950 ± 6240 Counts per minute
same,% Potentiation,[4]; [14],170%
same,3H-thymidine incorporation in PHA-stimulated cultures,[4]; [15],28765 ± 4475 Counts per minute
same,% Potentiation,[4]; [15],1171%
same,3H-thymidine incorporation in PHA-stimulated cultures,[4]; [16],50131 ± 4674 Counts per minute
same,% Potentiation,[4]; [16],88%
same,3H-thymidine incorporation in PHA-stimulated cultures,[4]; [17],91669 ± 7462 Counts per minute
same,% Potentiation,[4]; [17],244%
same,3H-thymidine incorporation in PHA-stimulated cultures,[4]; [18],119811 ± 2608 Counts per minute
same,% Potentiation,[4]; [18],91%
same,3H-thymidine incorporation in PHA-stimulated cultures,[4]; [19],66109 ± 2263 Counts per minute
same,% Potentiation,[4]; [19],71%
same,3H-thymidine incorporation in PHA-stimulated cultures,[4]; [20],79690 ± 3113 Counts per minute
same,% Potentiation,[4]; [20],79%
same,3H-thymidine incorporation in PHA-stimulated cultures,[4]; [21],93966 ± 6505 Counts per minute
same,% Potentiation,[4]; [21],103%
same,3H-thymidine incorporation in PHA-stimulated cultures,[4]; [22],16156 ± 3600 Counts per minute
same,% Potentiation,[4]; [22],110%
same,3H-thymidine incorporation in PHA-stimulated cultures,[4]; [23],25657 ± 2488 Counts per minute
same,% Potentiation,[4]; [23],353%
same,3H-thymidine incorporation in PHA-stimulated cultures,[4]; [24],23582 ± 3903 Counts per minute
same,% Potentiation,[4]; [24],317%
same,% Specific Cytotoxicity,[5]; compound (0.006),42%
same,% Specific Cytotoxicity,[5]; compound (0.025),36%
same,% Specific Cytotoxicity,[5]; compound (0.1),53%
same,cytotoxic T lymphocyte activity,[5]; cultured lymphoblasts from the SB cell (leukemic) line,increased
same,antitumor activity,[6],devoid of any useful antitumor activity
